From patent EP0330025A2, “Antidiabetic composition comprising isocarbacyclin derivative” (TEIJIN LIMITED, priority 1988, dated 1989)

How the values were obtained:
[1] = system: GK rats with spontaneous diabetes; assay: Test Example 2: measurement of nerve conduction velocity in GK rats with spontaneous diabetes; assay type: in vivo; conditions: for Nerve conduction velocity (m/sec) Before administration / Nerve conduction velocity (m/sec) 4 weeks later: GK rats; for Nerve conduction velocity (m/sec) Before administration: baseline before oral administration
Description: (§1) At the test method was to use four groups, i.e., one group of Wistar rats as control, two groups of GK rats with spontaneous diabetes administered by the test substance and one group of the GK rats not administered by the test substance. Before testing, glucose tolerance and nerve conduction velocity were measured. Then the test substance was orally given for 4 weeks (one group at a dose of 30µg/-Kg/day and another group at a dose of 300µg/Kg/day), and the animals were then checked for glucose tolerance and nerve conduction velocity.
In similar way to Test Example 1, variations in nerve conduction velocity were measured for (17S)-17,20-dimethylisocarbacyclin methyl ester [=(17S)-17,20-dimethyl-9(0)-methano-Δ^6(9α)-prostaglandin I₁ methyl ester as test substance.

[2] = system: GK rats with spontaneous diabetes; assay: Test Example 1: measurement of nerve conduction velocity in GK rats with spontaneous diabetes; assay type: in vivo; conditions: for Nerve conduction velocity (m/sec) Before administration: baseline before oral administration
Description: A test substance, (17S)-17,20-dimethylisocarbacyclin [=(17S)-17,20-dimethyl-9(0)-methano-Δ^6(9α)-prostaglandin I₁] was used to observe any improvement effect on nervous disorder of GK rats with spontaneous diabetes.
as §1

[3] = 300µg/Kg/day orally for 4 weeks

Row | SMILES | Nerve conduction velocity (m/sec) Before administration ([1]; 30µg/Kg/day group) | Nerve conduction velocity (m/sec) 4 weeks later ([1]; 30µg/Kg/day orally for 4 weeks) | Nerve conduction velocity (m/sec) Before administration ([1]; 300µg/Kg/day group) | Nerve conduction velocity (m/sec) 4 weeks later [1, 3] | Improvements on nerve conduction velocity ([1]; both groups, 30µg/Kg/day and 300µg/Kg/day, after 4 weeks, in comparison with the control group of GK rats) | Nerve conduction velocity (m/sec) Before administration ([2]; 30µg/Kg/day group) | Nerve conduction velocity (m/sec) 4 weeks later ([2]; 30µg/Kg/day orally for 4 weeks) | Nerve conduction velocity (m/sec) Before administration ([2]; 300µg/Kg/day group) | Nerve conduction velocity (m/sec) 4 weeks later [2, 3]
1 | CCCC[C@H](C)C[C@H](O)/C=C/[C@@H]1[C@H]2CC(CCCCC(=O)OC)=C[C@H]2C[C@H]1O [(17S)-17,20-dimethyl-9(0)-methano-Δ^6(9α)-prostaglandin I₁ methyl ester] | 30.9 ± 1.0 m/sec | 38.1 ± 1.0 m/sec | 32.4 ± 0.7 m/sec | 37.5 ± 1.4 m/sec | Improvements on nerve conduction velocity were observed | – | – | – | –
2 | CCCC[C@H](C)C[C@H](O)/C=C/[C@@H]1[C@H]2CC(CCCCC(=O)O)=C[C@H]2C[C@H]1O [(17S)-17,20-dimethylisocarbacyclin, (17S)-17,20-dimethyl-9(0)-methano-Δ^6(9α)-prostaglandin I₁] | – | – | – | – | – | 33.7 ± 1.2 m/sec | 40.5 ± 0.8 m/sec | 35.0 ± 0.8 m/sec | 42.2 ± 0.9 m/sec
